Reference: article PMC7988029, “Growth optimization and identification of an ω-transaminase by a novel native PAGE activity staining method in a Bacillus sp. strain BaH isolated from Iranian soil” (AMB Express, 2021)
Like-named read-outs stand apart in the source and are kept apart here.

System: T1, BaH-ω-TA
T1 construct: gene omega-TA; native enzyme in unpurified crude extract of the wild-type strain; one activity band on native PAGE
Experiment: acetophenone formation by HPLC, Michaelis-Menten non-linear fit
Assay type: biochemical, Bacillus sp. BaH
Conditions: 0.1 mM PLP, Britton-Robinson buffer pH 6, 15 % DMSO, 35 °C, 1 mg/mL crude extract, read-out: apparent Km

| Km (60 mM pyruvate) [mM] | Km (70 mM (S)-MBA) [mM] | SMILES |
| --- | --- | --- |
| 2.6 |  | C[C@H](N)c1ccccc1 [(S)-MBA] |
|  | 17.3 | CC(=O)C(=O)O [pyruvate] |
